For 16 compounds, Ki and IC50 results are on record in ChEMBL document CHEMBL1133139, “Stereochemistry of halopyridyl and thiazolyl thiourea compounds is a major determinant of their potency as nonnucleoside inhibitors of HIV-1 reverse transcriptase” (Bioorg Med Chem Lett, 2000).

The target in assay [1] is T1, Human immunodeficiency virus type 1 reverse transcriptase (Human immunodeficiency virus 1, UniProt Q72547). Briefly: Binding affinity against HIV reverse transcriptase (Estimated Ki).
Assay [2] has as its target T1, Human immunodeficiency virus type 1 reverse transcriptase. In words: Compound was evaluated for its inhibitory activity against recombinant HIV-1 Reverse transcriptase using cell free RT inhibition assay.
A short description of assay [3]: Inhibit the replication of the HIV-1 strain […] in human peripheral blood mononuclear cell. Type of assay: functional.
For another assay, the system named is H9. Briefly: Inhibitory activity against multidrug resistant HIV-1 strain RT-MDR. Type of assay: functional, cell-based. The note with it: Homo sapiens.
Assay [4] has as its system Human immunodeficiency virus 1. In words: Inhibitory activity against NNI-resistant HIV-1 strain A17 with Y181C,K103N mutation. Type of assay: functional, organism-based.
Assay [5] concerns Human immunodeficiency virus 1. Briefly: Inhibitory activity against NNI-resistant HIV-1 strain A17 with Y181C mutation. The class given is functional, organism-based.
A short description of assay [6]: Compound was evaluated for its ability to inhibit the replication of the HIV-1 strain […] in human peripheral blood mononuclear cells. The class given is functional.

Structures are written as SMILES.

The term Ki denotes a dissociation constant, usually derived from enzyme kinetics or from competition with a known ligand. By IC50 is commonly meant the concentration at which inhibition is half-maximal. For `C[C@H](/N=C(\S)Nc1ccc(Br)cn1)C1CCCCC1`, the Ki in assay [1] was > 100 µM. The IC50 in assay [2] was > 100 µM; in assay [3], > 1 µM.

Consider `C[C@H](/N=C(\S)Nc1ccc(Cl)cn1)c1ccccc1`, for which, in assay [2], the IC50 is > 100 µM.

For the compound `C[C@H](NC(=S)Nc1ccccn1)C1CCCCC1`, in assay [1], the Ki was > 100 µM. The values for the IC50 in assay [2] and in assay [3] were > 100 µM and > 1 µM, respectively.

As for `C[C@@H](/N=C(\S)Nc1ccccn1)C1CCCCC1`, the Ki in assay [1] was > 100 µM. The IC50 in assay [2] was > 100 µM; in assay [3], > 1 µM.

With `C[C@@H](/N=C(\S)Nc1nccs1)C1CCCCC1`, the IC50 with H9 was found to be 5.6 µM; in assay [4] it was 5.8 µM; in assay [5], 0.9 µM; in assay [2] it was 13 µM; in assay [3], 0.001 µM. The Ki in assay [1] is 12 µM.

Turning to `C[C@@H](NC(=S)Nc1ccc(Br)cn1)C1CCCCC1`, the concentration for half-maximal inhibition (IC50) with H9 stood at 0.2 µM; in assay [4] it was 10 µM; in assay [5] it was 0.4 µM; in assay [2], 1.2 µM; in assay [6], 0.001 µM. Moreover, the Ki in assay [1] is 1.1 µM.

Take `Fc1ccccc1CCNC(=S)Nc1ccc(Br)cn1`: the IC50 with H9 is 0.005 µM; in assay [4], 41 µM; in assay [5] it was 0.2 µM; in assay [3] it was < 0.001 µM. The Ki in assay [1] is 0.6 µM.

Regarding `C[C@@H](NC(=S)Nc1ccc(Cl)cn1)c1ccccc1`, the IC50 in the assay on H9 was determined as 0.01 µM; in assay [4], 10.2 µM; in assay [5], 0.2 µM; in assay [2], 1.2 µM; in assay [3] it was 0.01 µM.

As to `C[C@@H](NC(=S)Nc1ccc(Br)cn1)c1ccccc1`, the IC50 in the assay with H9 was determined as 0.005 µM; in assay [4], 2.7 µM; in assay [5], 0.01 µM; in assay [2], 1.6 µM; in assay [3] it was 0.01 µM.

Take `S=C(NCCc1ccccn1)Nc1ccc(Br)cn1` [TROVIRDINE]: the IC50 with H9 is 0.02 µM; in assay [4], > 100 µM; in assay [5] it was 0.5 µM; in assay [3] it was 0.007 µM. Moreover, in assay [1], the Ki is 0.6 µM.

Turning to `C[C@H](NC(=S)Nc1nccs1)C1CCCCC1`, the Ki in assay [1] is > 100 µM. The results for the IC50 in assay [2] and in assay [3] were > 100 µM and > 1 µM, respectively.

Turning to `Cc1ccnc2c1NC(=O)c1cccnc1N2C1CC1` [NEVIRAPINE], the IC50 is 5 µM with H9, > 100 µM in assay [4], > 100 µM in assay [5] and 0.034 µM in assay [3].

For `CC(C)Nc1cccnc1N1CCN(C(=O)c2cc3cc(NS(C)(=O)=O)ccc3[nH]2)CC1` [DELAVIRDINE], the IC50 in the assay with H9 is 0.4 µM; in assay [4] it was > 100 µM; in assay [5], 50 µM; in assay [3] it was 0.009 µM.

Regarding `C[C@@H](/N=C(\S)Nc1ccc(Cl)cn1)C1CCCCC1`, the IC50 turned out to be 0.06 µM with H9; 8.2 µM in assay [4]; 0.07 µM in assay [5]; 1.4 µM in assay [2]; 0.025 µM in assay [3]. Further, in assay [1], the Ki was 1.2 µM.

`C[C@H](/N=C(\S)Nc1ccc(Cl)cn1)C1CCCCC1`: the Ki in assay [1] is > 100 µM. The IC50 in assay [2] is > 100 µM; in assay [3], > 1 µM.

As for `C[C@H](/N=C(\S)Nc1ccc(Br)cn1)c1ccccc1`, the figures for the concentration for half-maximal inhibition (IC50) in assay [2] and in assay [3] were > 100 µM and > 1 µM, respectively.
